Among the test systems are SN12C renal; RPMI-8226 leukemia; OVCAR-8 ovarian; SK-OV-3 ovarian; M14 melanoma; KM20L2 colon; LXFL 529 NSCLC; MOLT-4 leukemia; NCI/ADR-RES ovarian; MCF7 breast.
Holding throughout (test): DTP human tumour cell line panel, 48 h

SMILES strings stand for the structures.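 The compound was tested at five concentrations on cells cultured in 96-well plates, with a 48-hour exposure period. Here, GI50 denotes the concentration required for 50% inhibition of growth. TGI: total growth inhibition.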 Some results are limits rather than exact numbers.

Turning to `N#Cc1cccnc1Cl`, the total growth inhibition concentration (TGI) with SN12C renal, with RPMI-8226 leukemia, in the assay on OVCAR-8 ovarian, with SK-OV-3 ovarian, in the assay on M14 melanoma and in the assay with KM20L2 colon was greater than 100 µM in each case. The total growth inhibition concentration (TGI) with LXFL 529 NSCLC and in the assay on MOLT-4 leukemia was greater than 100 µM throughout.

In the case of `O=C(NCO)NCOCn1c(=O)n(CO)c(=O)n(CO)c1=O`, the total growth inhibition concentration (TGI) in the assay with SN12C renal is greater than 100 µM; in the assay with RPMI-8226 leukemia, 68.4 µM; in the assay on OVCAR-8 ovarian, greater than 100 µM; in the assay on SK-OV-3 ovarian it was greater than 100 µM; with M14 melanoma it was 31.7 µM; in the assay with KM20L2 colon, greater than 94.9 µM. For the same compound, the values for the concentration for total growth inhibition (TGI) with LXFL 529 NSCLC and with MOLT-4 leukemia were 42.8 µM and greater than 65.9 µM, respectively.

Turning to `Clc1ccc2c(c1)-c1c3c(nn1-c1ccccc1)-c1ccccc1SC3O2` (configuration not stated), the total growth inhibition concentration (TGI) in the assay with RPMI-8226 leukemia, in the assay with OVCAR-8 ovarian, with SK-OV-3 ovarian, in the assay with KM20L2 colon, in the assay on LXFL 529 NSCLC and in the assay with MOLT-4 leukemia was greater than 100 µM throughout.

In the case of `CN(C)c1cc[c]([Sn]([c]2ccc(N(C)C)cc2)([c]2ccc(N(C)C)cc2)[c]2ccc(N(C)C)cc2)cc1`, the GI50 was greater than 100 µM with SN12C renal; 1.55 µM in the assay on RPMI-8226 leukemia; 9.57 µM in the assay with OVCAR-8 ovarian; 28 µM in the assay with SK-OV-3 ovarian; 9.18 µM with M14 melanoma; 4.3 µM in the assay with KM20L2 colon. Besides, the GI50 was 3.09 µM with LXFL 529 NSCLC and 1930 nM in the assay on MOLT-4 leukemia. Besides, the TGI is greater than 100 µM in the assay with SN12C renal; 4.76 µM with RPMI-8226 leukemia; 56.3 µM in the assay with OVCAR-8 ovarian; 49.5 µM with SK-OV-3 ovarian; 21.6 µM in the assay on M14 melanoma; 14.8 µM with KM20L2 colon. The results for the TGI with LXFL 529 NSCLC and with MOLT-4 leukemia were 12.9 µM and 6.22 µM, respectively.

Take `Cc1c(C(=O)/C=C/c2ccccc2)[n+](=O)c2ccccc2n1[O-]`: the TGI in the assay with SN12C renal turned out to be 33.6 µM; in the assay with RPMI-8226 leukemia, 45.9 µM; with OVCAR-8 ovarian, 28.7 µM; in the assay with SK-OV-3 ovarian, 42.7 µM; with M14 melanoma, 29.1 µM; with KM20L2 colon, 35.5 µM. Besides, the TGI with LXFL 529 NSCLC stood at 26 µM; with MOLT-4 leukemia, 54.6 µM.

Turning to `C=CC/C=C/C/C=C/CCCCCCCc1cccc(O)c1C(=O)O`, the TGI in the assay with RPMI-8226 leukemia is greater than 100 µM; with OVCAR-8 ovarian, greater than 100 µM; in the assay with SK-OV-3 ovarian, 79.8 µM; in the assay with M14 melanoma it was greater than 100 µM; in the assay on KM20L2 colon, greater than 100 µM; with LXFL 529 NSCLC, greater than 100 µM. This compound also gave a total growth inhibition concentration (TGI) in the assay on MOLT-4 leukemia greater than 100 µM.

As for `O=C1[C@@H]2C(c3ccccc3F)=NO[C@@H]2C(=O)N1c1ccc(Cc2ccc(N3C(=O)[C@H]4C(c5ccccc5F)=NO[C@H]4C3=O)cc2)cc1`, the total growth inhibition concentration (TGI) in the assay on SN12C renal was greater than 100 µM; in the assay on RPMI-8226 leukemia, greater than 83.3 µM; in the assay on OVCAR-8 ovarian it was greater than 100 µM; in the assay on SK-OV-3 ovarian, greater than 100 µM; in the assay with M14 melanoma, greater than 100 µM; with KM20L2 colon, greater than 100 µM. Further, the TGI was greater than 100 µM in the assay on LXFL 529 NSCLC and greater than 64.4 µM with MOLT-4 leukemia.

As to `c1ccc(C2Nc3ccccc3C3OCCCC23)cc1` (configuration not stated), the TGI with SN12C renal was greater than 100 µM; in the assay with RPMI-8226 leukemia, 60.2 µM; with OVCAR-8 ovarian it was 44.3 µM; in the assay with KM20L2 colon, 47.7 µM; with LXFL 529 NSCLC it was greater than 100 µM; with MOLT-4 leukemia it was greater than 100 µM.

Turning to `CSC(C1c2ccccc2N(c2ccc(C)cc2)c2[nH]c(=O)n(C)c(=O)c21)S(=O)(=O)c1ccc(C)cc1` (configuration not stated), the total growth inhibition concentration (TGI) in the assay with SN12C renal, with RPMI-8226 leukemia, in the assay on OVCAR-8 ovarian, with SK-OV-3 ovarian, in the assay with M14 melanoma and in the assay with KM20L2 colon was greater than 100 µM each time. In addition, the total growth inhibition concentration (TGI) in the assay on LXFL 529 NSCLC and with MOLT-4 leukemia was greater than 100 µM throughout.

As to `COc1cc(/C=C(\C#N)c2ccccc2)cc(OC)c1`, the TGI in the assay with SN12C renal, in the assay on RPMI-8226 leukemia, in the assay on SK-OV-3 ovarian, in the assay with M14 melanoma, with KM20L2 colon and in the assay with LXFL 529 NSCLC was greater than 100 µM in each case. Moreover, the concentration for total growth inhibition (TGI) in the assay on MOLT-4 leukemia came to 58.6 µM.

Regarding `O=C1OC2CCCC[C@@H]2C2C[C@]34CCCCC3[C@@H](C(=O)O4)C12` (some centres not stated), the total growth inhibition concentration (TGI) with SN12C renal, with OVCAR-8 ovarian, in the assay with SK-OV-3 ovarian, with M14 melanoma, with KM20L2 colon and with LXFL 529 NSCLC was greater than 100 µM throughout. This compound had a total growth inhibition concentration (TGI) with MOLT-4 leukemia greater than 100 µM.

On to `C/C(CC(=O)NCCc1ccccc1)=N\NC(=O)C[n+]1ccccc1`, for which the TGI with RPMI-8226 leukemia, in the assay with OVCAR-8 ovarian, with SK-OV-3 ovarian, in the assay on M14 melanoma, in the assay on KM20L2 colon and in the assay on LXFL 529 NSCLC was greater than 100 µM in each case. For the same compound, in the assay on MOLT-4 leukemia, the TGI is greater than 100 µM.

For `COc1ccc(OC)c2c(C(=O)O)c(Cc3ccccc3)ccc12`, the total growth inhibition concentration (TGI) in the assay on SN12C renal, in the assay with OVCAR-8 ovarian, with SK-OV-3 ovarian, in the assay with M14 melanoma, in the assay with KM20L2 colon and in the assay with LXFL 529 NSCLC was greater than 100 µM in each case. Moreover, the TGI in the assay with MOLT-4 leukemia is greater than 100 µM.

On to `CCCCCCCCCCCC(=O)OCC1OC(OC)C(NC(=O)N(CCCl)N=O)C(O)C1O` (configuration not stated), for which the TGI with SN12C renal stood at 29.5 µM; in the assay on RPMI-8226 leukemia, 29.6 µM; with OVCAR-8 ovarian it was 41 µM; with M14 melanoma, 24.5 µM; in the assay with KM20L2 colon it was 36.8 µM; with LXFL 529 NSCLC, 26.4 µM. The TGI in the assay on MOLT-4 leukemia was 16.1 µM.

For the compound `C#Cc1c(I)n(C2OC(CO[Si](C)(C)C(C)(C)C)C3OC(C)(C)OC32)c(=O)[nH]c1=O` (configuration not stated), the GI50 in the assay on NCI/ADR-RES ovarian was 23.5 µM; in the assay with SN12C renal, 18.5 µM; in the assay on RPMI-8226 leukemia, 3.63 µM; in the assay with OVCAR-8 ovarian, 12.1 µM; in the assay with SK-OV-3 ovarian, 33.2 µM; with MCF7 breast, 16.6 µM. Also, the figures for the GI50 in the assay on M14 melanoma and with MOLT-4 leukemia were 16.3 µM and 2170 nM, respectively. For the same compound, the TGI was 59.1 µM in the assay with NCI/ADR-RES ovarian; 37.6 µM in the assay on SN12C renal; 13.7 µM with RPMI-8226 leukemia; 27.8 µM in the assay with OVCAR-8 ovarian; greater than 100 µM in the assay on SK-OV-3 ovarian; 50 µM in the assay on MCF7 breast. Further, the concentration for total growth inhibition (TGI) in the assay on M14 melanoma was 33.3 µM; in the assay with MOLT-4 leukemia it was 6.69 µM.

Turning to `CN(C)C(=O)[C@H](O)[C@H](Cc1ccccc1)NC(=O)c1cc2cc(Cl)ccc2[nH]1`, the GI50 with NCI/ADR-RES ovarian was 22.7 µM; in the assay on SN12C renal, 23.5 µM; with RPMI-8226 leukemia, 19.5 µM; with OVCAR-8 ovarian, 28.8 µM; in the assay on SK-OV-3 ovarian, 29.1 µM; with MCF7 breast, 22.1 µM. In addition, the GI50 with M14 melanoma was 23.2 µM; in the assay on MOLT-4 leukemia, 21000 nM. For the same compound, the total growth inhibition concentration (TGI) in the assay with NCI/ADR-RES ovarian was greater than 100 µM; in the assay on SN12C renal, greater than 95.1 µM; in the assay with RPMI-8226 leukemia, 66.6 µM; in the assay on OVCAR-8 ovarian it was greater than 100 µM; in the assay on SK-OV-3 ovarian it was 97.8 µM; in the assay with MCF7 breast, greater than 83.3 µM. Moreover, the TGI was 67.6 µM in the assay on M14 melanoma and 79.4 µM with MOLT-4 leukemia.

The values are drawn from PubChem BioAssay (NCI).
